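Interpolation was linear, between the two tested concentrations surrounding the appropriate level; five concentrations were tested over 48 hours in 96-well plates. Here, GI50 denotes the concentration required for 50% inhibition of growth.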 Calls of active or inactive are those of the source. Cut-off read from the data, not from the text of the source: active = GI50 up to about 1.1 µM and inactive = higher.
Tests used:
Assay in all cases: DTP human tumour cell line panel, 48 h
[1] = test system: U-251
[2] = test system: NCI-H522
[3] = test system: PC-3
[4] = test system: SK-MEL-2
[5] = test system: MDA-MB-435
[6] = test system: CAKI-1
[7] = test system: COLO 205
[8] = test system: A498
[9] = test system: UACC-257
[10] = test system: BT-549
[11] = test system: HCT-15
[12] = test system: RXF 393
[13] = test system: SF-539
[14] = test system: SF-268
[15] = test system: Hs-578T
[16] = test system: OVCAR-4
[17] = test system: HL-60
[18] = test system: UACC-62
[19] = test system: HT-29
[20] = test system: T47D

SMILES | GI50 [1] | GI50 [2] | GI50 [3] | GI50 [4] | GI50 [5] | GI50 [6] | GI50 [7] | GI50 [8] | GI50 [9] | GI50 [10] | GI50 [11] [µM] | GI50 [12] | GI50 [13] | GI50 [14] | GI50 [15] | GI50 [16] | GI50 [17] | GI50 [18] | GI50 [19] | GI50 [20]
COC(=O)C(Cc1ccccc1)NC(=O)c1ccc(CNC(=S)NCc2cccc(CNC(=S)NCc3ccccc3)c2)cc1 (stereo not drawn) | > 33.5 µM (inactive) | > 32.5 µM (inactive) | > 32 µM (inactive) | > 33.3 µM (inactive) | > 34.2 µM (inactive) | > 36.4 µM (inactive) | > 32.1 µM (inactive) | > 62.5 µM (inactive) | > 35.8 µM (inactive) | > 33.9 µM (inactive) | > 35.2 | 20 µM (inactive) | > 62.5 µM (inactive) | 18.3 µM (inactive) | > 29.9 µM (inactive) | > 32.1 µM (inactive) | > 62.5 µM (inactive) | > 34.6 µM (inactive) | > 33.7 µM (inactive) | > 33.7 µM (inactive)
O=C(NC12CC3CC(CC(C3)C1)C2)n1cnc2c(Cl)ncnc21 | 27.2 µM (inactive) | 27.9 µM (inactive) | 26.4 µM (inactive) | 28.3 µM (inactive) | 19.1 µM (inactive) | > 100 µM (inactive) | 17 µM (inactive) | > 100 µM (inactive) | 35.8 µM (inactive) | 31.3 µM (inactive) | 35 | 35.2 µM (inactive) | 42.6 µM (inactive) | 22.6 µM (inactive) | 32.3 µM (inactive) |  | 3.28 µM (inactive) | 81.1 µM (inactive) | 27 µM (inactive) | > 100 µM (inactive)
C=CCc1cccc2cc(C(=O)Nc3ccccc3)c(=N)oc12 | > 100 µM (inactive) | 10.4 µM (inactive) | 39.2 µM (inactive) | 8.47 µM (inactive) | 27.9 µM (inactive) | 63.2 µM (inactive) | > 100 µM (inactive) | 23.2 µM (inactive) | > 100 µM (inactive) | > 100 µM (inactive) | 33.6 | > 100 µM (inactive) | 28.2 µM (inactive) | > 100 µM (inactive) | 37.6 µM (inactive) | 15.6 µM (inactive) | > 100 µM (inactive) | 41.1 µM (inactive) | > 100 µM (inactive) | 11.9 µM (inactive)
COc1c(OC(C)=O)c(OC(C)=O)cc2c1-c1ccc(OC)c(=O)cc1C(NC(C)=O)CC2 (stereo not drawn) | 0.0321 µM (active) | 0.0114 µM (active) | 0.0493 µM (active) | 0.0186 µM (active) | < 0.01 µM (active) | 0.054 µM (active) | 0.0171 µM (active) | 0.0513 µM (active) |  | > 100 µM (inactive) | 0.465 | < 0.01 µM (active) | < 0.0122 µM (active) | 0.0218 µM (active) | < 0.01 µM (active) | 31.9 µM (inactive) | < 0.01 µM (active) | < 0.01 µM (active) | 0.0198 µM (active) | > 100 µM (inactive)

— ChEMBL document CHEMBL1201862, “PubChem BioAssay data set” (2004)
